In article PMC2248166, “Quantitative peptide binding motifs for 19 human and mouse MHC class I molecules derived using positional scanning combinatorial peptide libraries” (Immunome Research, 2008):

target: HLA B*5801 (Homo sapiens, UniProt P01889, A329T/C349S/D201E/D98Y/E176V/E187L/E204Q/E69T/G107R/I218V/I90N/K202T/L105A/L119I/N104I/N87E/Q89R/Q94S/R106L/R155S/R180L/R86G/S101N/S121R/S35A/S48A/T118I/V127L/V306I/V36M/Y140S/Y91M); assay: not given; format: binding; details: not given

| Sequence | Normalized average relative binding affinity (ARB), HLA B*5801 |
| --- | --- |
| XGXXXXXXX [3064.0026] | 0.14 |
| XHXXXXXXX [3064.0027] | 0.061 |
| XIXXXXXXX [3064.0028] | 0.046 |
| XKXXXXXXX [3064.0029] | 0.014 |

target: HLA A*3001 (Homo sapiens, UniProt P04439, D140H/D185E/E176W/F33S/G80R/H175R/K168Q/R138E/R41S); assay: biochemical; format: binding; details: not given

| Sequence | Normalized average relative binding affinity (ARB), HLA A*3001 |
| --- | --- |
| XGXXXXXXX [3064.0026] | 0.22 |
| XHXXXXXXX [3064.0027] | 0.082 |
| XIXXXXXXX [3064.0028] | 0.18 |
| XKXXXXXXX [3064.0029] | 0.026 |

target: HLA B*5101 (Homo sapiens, UniProt P01889, A329T/A93T/A95T/C349S/D138N/D201E/D98Y/E187L/E204Q/E69T/G107R/I218V/K202T/L105A/L119W/N104I/Q94N/R106L/R155S/R180L/S101N/S121T/S35A/S48A/V306I/V36M/Y195H/Y91F); assay: not given; format: binding; details: not given

| Sequence | Normalized average relative binding affinity (ARB), HLA B*5101 |
| --- | --- |
| XGXXXXXXX [3064.0026] | 0.16 |
| XHXXXXXXX [3064.0027] | 0.029 |
| XIXXXXXXX [3064.0028] | 0.047 |
| XKXXXXXXX [3064.0029] | 0.022 |

target: HLA A*3201 (Homo sapiens, UniProt P04439, A270S/D101S/D185E/E176V/E277Q/F133L/G103R/G107R/G231S/H175R/I121M/I218V/I322F/K168Q/L105A/L300P/L318F/M331R/P208A/P217A/Q94H/R106L/R138Q/S129P/T104I/T323A/T345S/V100E/V321M/V358M); assay: biochemical; format: binding; details: not given

| Sequence | Normalized average relative binding affinity (ARB), HLA A*3201 |
| --- | --- |
| XGXXXXXXX [3064.0026] | 0.025 |
| XHXXXXXXX [3064.0027] | 0.047 |
| XIXXXXXXX [3064.0028] | 0.35 |
| XKXXXXXXX [3064.0029] | 0.0079 |

target: HLA B*5401 (Homo sapiens, UniProt P01889, A329T/C349S/D138N/D201E/E176V/E187T/E204Q/E69G/I76V/K202T/L119W/R155S/R180L/S121T/S35A/S48A/V127L/V306I/V36M/Y140L); assay: not given; format: binding; details: not given

| Sequence | Normalized average relative binding affinity (ARB), HLA B*5401 |
| --- | --- |
| XGXXXXXXX [3064.0026] | 0.011 |
| XHXXXXXXX [3064.0027] | 0.0014 |
| XIXXXXXXX [3064.0028] | 0.0071 |
| XKXXXXXXX [3064.0029] | 0.0038 |

target: HLA B*1501 (Homo sapiens, UniProt P01889, A329T/A93T/A95T/C349S/D201E/D98Y/E187L/E204Q/E69M/E70A/K202T/N87E/Q94N/R155S/R180W/S121R/S35A/S48A/V306I/V36M/Y140S/Y91S); assay: biochemical; format: binding; details: not given

| Sequence | Normalized average relative binding affinity (ARB), HLA B*1501 |
| --- | --- |
| XGXXXXXXX [3064.0026] | 0.095 |
| XHXXXXXXX [3064.0027] | 0.015 |
| XIXXXXXXX [3064.0028] | 0.42 |
| XKXXXXXXX [3064.0029] | 0.0091 |

target: HLA B*0801 (Homo sapiens, UniProt P01889, A93T/A95T/D138N/E176V/E187T/K202T/Q94N/R180D/S35A/V36M/Y33D/Y91F); assay: biochemical; format: binding; details: not given

| Sequence | Normalized average relative binding affinity (ARB), HLA B*0801 |
| --- | --- |
| XGXXXXXXX [3064.0026] | 0.17 |
| XHXXXXXXX [3064.0027] | 0.028 |
| XIXXXXXXX [3064.0028] | 0.24 |
| XKXXXXXXX [3064.0029] | 0.097 |

target: HLA A*0201 (Homo sapiens, UniProt P04439, D140Y/D185E/D98H/E176V/E277Q/G131W/G231S/I119V/I121R/I166T/I218V/L300P/L318F/N151K/N90K/P208A/P217A/Q86G/Q94H/R138H/R169H/T345S); assay: not given; details: positional scanning combinatorial 9-mer library; normalized to 1.0 for the best residue at each position

| Sequence | Normalized average relative binding affinity (ARB), HLA A*0201 |
| --- | --- |
| XGXXXXXXX [3064.0026] | 0.0090 |
| XHXXXXXXX [3064.0027] | 0.0016 |
| XIXXXXXXX [3064.0028] | 0.057 |
| XKXXXXXXX [3064.0029] | 0.012 |

target: HLA B*1503 (Homo sapiens, UniProt P01889, A329T/A93T/A95T/C349S/D201E/D98Y/E187L/E204Q/K202T/N87E/Q94N/R155S/R180L/S121R/S35A/V306I/V36M/Y140S/Y91S); assay: biochemical; format: binding; details: not given

| Sequence | Normalized average relative binding affinity (ARB), HLA B*1503 |
| --- | --- |
| XGXXXXXXX [3064.0026] | 0.042 |
| XHXXXXXXX [3064.0027] | 0.16 |
| XIXXXXXXX [3064.0028] | 0.026 |
| XKXXXXXXX [3064.0029] | 0.29 |

target: HLA B*2705 (Homo sapiens, UniProt P01889, D138H/D201E/E176V/E204Q/G107R/H137Y/K202T/N104T/N87E/Q56L/Q94K/R106L/R155S/R180L/S101D/S121N/S48T/Y140D/Y33H/Y91C); assay: not given; format: binding; details: positional scanning combinatorial 9-mer library; normalized to 1.0 for the best residue at each position

| Sequence | Normalized average relative binding affinity (ARB), HLA B*2705 |
| --- | --- |
| XGXXXXXXX [3064.0026] | 0.0016 |
| XHXXXXXXX [3064.0027] | 0.0065 |
| XIXXXXXXX [3064.0028] | 0.0022 |
| XKXXXXXXX [3064.0029] | 0.0076 |

target: HLA B*3501 (Homo sapiens, UniProt P01889, A329T/A93T/A95T/C349S/D201E/D98Y/E176V/E187L/E204Q/E69T/I218V/K202T/L119I/Q94N/R155S/R180L/S121R/S35A/S48A/T118I/V127L/V306I/V36M/Y140S/Y91F); assay: not given; format: binding; details: not given

| Sequence | Normalized average relative binding affinity (ARB), HLA B*3501 |
| --- | --- |
| XGXXXXXXX [3064.0026] | 0.063 |
| XHXXXXXXX [3064.0027] | 0.0078 |
| XIXXXXXXX [3064.0028] | 0.032 |
| XKXXXXXXX [3064.0029] | 0.0078 |

target: H-2 D^b (Mus musculus, UniProt P01899); assay: not given; format: binding; details: not given
Sequence (P01887 21-119): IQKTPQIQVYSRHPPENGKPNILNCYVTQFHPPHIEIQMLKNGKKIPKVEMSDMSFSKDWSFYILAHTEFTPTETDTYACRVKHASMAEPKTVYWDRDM
Sequence (P01899 25-362): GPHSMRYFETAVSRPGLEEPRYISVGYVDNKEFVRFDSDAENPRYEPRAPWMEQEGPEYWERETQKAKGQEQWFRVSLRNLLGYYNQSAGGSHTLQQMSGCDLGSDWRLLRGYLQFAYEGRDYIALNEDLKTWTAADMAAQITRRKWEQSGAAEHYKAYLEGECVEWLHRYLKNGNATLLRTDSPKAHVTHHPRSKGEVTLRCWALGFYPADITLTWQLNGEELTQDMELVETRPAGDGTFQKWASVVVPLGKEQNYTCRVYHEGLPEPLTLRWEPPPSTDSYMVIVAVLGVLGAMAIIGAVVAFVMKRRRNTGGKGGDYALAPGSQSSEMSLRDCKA

| Sequence | Normalized average relative binding affinity (ARB), H-2 Db |
| --- | --- |
| XGXXXXXXX [3064.0026] | 0.42 |
| XHXXXXXXX [3064.0027] | 0.099 |
| XIXXXXXXX [3064.0028] | 0.076 |
| XKXXXXXXX [3064.0029] | 0.052 |

target: HLA B*5301 (Homo sapiens, UniProt P01889, A329T/A93T/A95T/C349S/D201E/D98Y/E176V/E187L/E204Q/E69T/G107R/I218V/K202T/L105A/L119I/N104I/Q94N/R106L/R155S/R180L/S101N/S121R/S35A/S48A/T118I/V127L/V306I/V36M/Y140S/Y91F); assay: not given; format: binding; details: not given

| Sequence | Normalized average relative binding affinity (ARB), HLA B*5301 |
| --- | --- |
| XGXXXXXXX [3064.0026] | 0.022 |
| XHXXXXXXX [3064.0027] | 0.0036 |
| XIXXXXXXX [3064.0028] | 0.11 |
| XKXXXXXXX [3064.0029] | 0.0053 |

target: H-2 K^k (Mus musculus, UniProt P04223); assay: not given; format: binding; details: not given
Sequence (P01887 21-119): as the sequence (P01887 21-119) above
Sequence (P04223 22-369): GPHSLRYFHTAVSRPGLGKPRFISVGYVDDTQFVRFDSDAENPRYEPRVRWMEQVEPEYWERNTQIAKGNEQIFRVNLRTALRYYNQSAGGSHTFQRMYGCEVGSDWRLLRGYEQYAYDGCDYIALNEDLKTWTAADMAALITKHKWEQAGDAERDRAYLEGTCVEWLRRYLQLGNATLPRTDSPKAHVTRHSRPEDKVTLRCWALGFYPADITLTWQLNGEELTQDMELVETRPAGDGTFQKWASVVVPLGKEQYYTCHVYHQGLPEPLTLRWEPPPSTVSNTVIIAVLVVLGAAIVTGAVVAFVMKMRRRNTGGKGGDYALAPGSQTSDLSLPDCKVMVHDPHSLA

| Sequence | Normalized average relative binding affinity (ARB), H-2 Kk |
| --- | --- |
| XGXXXXXXX [3064.0026] | 0.0063 |
| XHXXXXXXX [3064.0027] | 0.0052 |
| XIXXXXXXX [3064.0028] | 0.0026 |
| XKXXXXXXX [3064.0029] | 0.0031 |

target: H-2 D^d (Mus musculus, UniProt P01900); assay: not given; format: binding; details: not given
Sequence (P01900 whole entry, looked up): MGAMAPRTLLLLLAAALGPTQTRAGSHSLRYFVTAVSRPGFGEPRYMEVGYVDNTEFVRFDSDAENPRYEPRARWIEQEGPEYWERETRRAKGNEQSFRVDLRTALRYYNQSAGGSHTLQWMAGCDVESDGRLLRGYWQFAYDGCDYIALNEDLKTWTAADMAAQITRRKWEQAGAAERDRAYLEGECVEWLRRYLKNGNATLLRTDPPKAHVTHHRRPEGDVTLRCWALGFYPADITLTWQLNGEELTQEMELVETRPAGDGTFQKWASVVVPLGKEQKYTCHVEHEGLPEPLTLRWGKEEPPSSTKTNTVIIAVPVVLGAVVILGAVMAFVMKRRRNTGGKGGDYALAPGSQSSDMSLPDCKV

| Sequence | Normalized average relative binding affinity (ARB), H-2 Dd |
| --- | --- |
| XGXXXXXXX [3064.0026] | 1.0 |
| XHXXXXXXX [3064.0027] | 0.061 |
| XIXXXXXXX [3064.0028] | 0.018 |
| XKXXXXXXX [3064.0029] | 0.093 |

target: HLA B*0702 (Homo sapiens, UniProt P01889); assay: not given; format: binding; details: positional scanning combinatorial 9-mer library; normalized to 1.0 for the best residue at each position

| Sequence | Normalized average relative binding affinity (ARB), HLA B*0702 |
| --- | --- |
| XGXXXXXXX [3064.0026] | 0.0028 |
| XHXXXXXXX [3064.0027] | 0.0028 |
| XIXXXXXXX [3064.0028] | 0.033 |
| XKXXXXXXX [3064.0029] | 0.0028 |

target: HLA A*6802 (Homo sapiens, UniProt P04439, A269V/D140Y/D185E/E176V/E277Q/E87N/F33Y/G231S/I121R/I166T/I218V/L180W/L300P/L318F/N151K/P208A/P217A/Q86R/R138H/R169H/S129P/T345S/V36M); assay: not given; format: binding; details: not given

| Sequence | Normalized average relative binding affinity (ARB), HLA A*6802 |
| --- | --- |
| XGXXXXXXX [3064.0026] | 0.014 |
| XHXXXXXXX [3064.0027] | 0.0031 |
| XIXXXXXXX [3064.0028] | 0.15 |
| XKXXXXXXX [3064.0029] | 0.011 |

target: HLA B*5802 (Homo sapiens, UniProt P01889, A329T/C349S/D201E/D98Y/E176V/E187L/E204Q/E69T/G107R/I218V/I90N/K202T/L105A/N104I/N87E/Q89R/Q94S/R106L/R155S/R180L/R86G/S101N/S121W/S35A/S48A/V127L/V306I/V36M/Y140S/Y91M); assay: not given; format: binding; details: not given

| Sequence | Normalized average relative binding affinity (ARB), HLA B*5802 |
| --- | --- |
| XGXXXXXXX [3064.0026] | 0.077 |
| XHXXXXXXX [3064.0027] | 0.030 |
| XIXXXXXXX [3064.0028] | 0.11 |
| XKXXXXXXX [3064.0029] | 0.045 |
